ChEMBL document CHEMBL2434948, “Discovery, synthesis, and characterization of an orally bioavailable, brain penetrant inhibitor of mixed lineage kinase 3” (J Med Chem, 2013)
Active and inactive are the calls of the source. The rule behind the calls is not given here.

Tests used:
[1] = molecular target: Mitogen-activated protein kinase kinase kinase 11 (Mus musculus, UniProt Q80XI6)
[2] = molecular target: T1, Mitogen-activated protein kinase kinase kinase 11 (Homo sapiens, UniProt Q16584)
Description: Inhibition of MLK3 (unknown origin) after 20 mins by scintillation counting analysis in presence of [33P]-ATP

Cytochrome P450 3A4 = Cytochrome P450 3A4 (Homo sapiens, UniProt P08684)
Chain of Cytochrome P450 3A4 (P08684 whole entry): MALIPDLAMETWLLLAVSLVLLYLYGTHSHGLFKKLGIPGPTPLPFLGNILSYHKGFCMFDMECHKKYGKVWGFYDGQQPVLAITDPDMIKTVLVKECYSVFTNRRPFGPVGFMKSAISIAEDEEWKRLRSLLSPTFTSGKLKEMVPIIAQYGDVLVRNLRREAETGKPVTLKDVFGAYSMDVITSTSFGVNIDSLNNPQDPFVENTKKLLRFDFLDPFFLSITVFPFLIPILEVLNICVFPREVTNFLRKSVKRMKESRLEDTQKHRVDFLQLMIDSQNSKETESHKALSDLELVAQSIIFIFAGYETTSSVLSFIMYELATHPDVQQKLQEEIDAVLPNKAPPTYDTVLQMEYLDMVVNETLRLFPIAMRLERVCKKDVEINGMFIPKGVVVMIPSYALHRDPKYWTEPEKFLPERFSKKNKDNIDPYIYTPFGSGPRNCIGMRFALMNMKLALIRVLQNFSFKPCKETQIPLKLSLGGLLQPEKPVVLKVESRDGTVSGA
Description: Inhibition of CYP3A4 in human liver microsomes assessed as inhibition of dextromethorphan metabolism by HPLC/MS analysis

Cytochrome P450 2C9 = Cytochrome P450 2C9 (Homo sapiens, UniProt P11712)
Chain of Cytochrome P450 2C9 (P11712 whole entry): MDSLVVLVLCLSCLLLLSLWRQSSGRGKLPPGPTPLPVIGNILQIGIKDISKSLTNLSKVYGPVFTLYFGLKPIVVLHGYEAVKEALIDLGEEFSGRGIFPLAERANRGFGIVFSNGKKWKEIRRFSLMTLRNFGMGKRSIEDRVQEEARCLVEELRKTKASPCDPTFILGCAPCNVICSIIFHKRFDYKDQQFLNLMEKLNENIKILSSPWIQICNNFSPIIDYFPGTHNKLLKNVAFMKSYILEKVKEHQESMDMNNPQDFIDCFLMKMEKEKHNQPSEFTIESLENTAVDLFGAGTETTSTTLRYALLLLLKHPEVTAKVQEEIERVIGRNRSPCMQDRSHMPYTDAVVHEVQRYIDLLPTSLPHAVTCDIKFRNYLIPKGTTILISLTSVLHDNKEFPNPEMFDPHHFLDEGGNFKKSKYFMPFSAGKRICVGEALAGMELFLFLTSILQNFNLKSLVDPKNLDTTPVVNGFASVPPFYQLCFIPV
Description: Inhibition of CYP2C9 in human liver microsomes assessed as inhibition of midazolam metabolism by HPLC/MS analysis

Cytochrome P450 2D6 = Cytochrome P450 2D6 (Homo sapiens, UniProt P10635)
Chain of Cytochrome P450 2D6 (P10635 whole entry): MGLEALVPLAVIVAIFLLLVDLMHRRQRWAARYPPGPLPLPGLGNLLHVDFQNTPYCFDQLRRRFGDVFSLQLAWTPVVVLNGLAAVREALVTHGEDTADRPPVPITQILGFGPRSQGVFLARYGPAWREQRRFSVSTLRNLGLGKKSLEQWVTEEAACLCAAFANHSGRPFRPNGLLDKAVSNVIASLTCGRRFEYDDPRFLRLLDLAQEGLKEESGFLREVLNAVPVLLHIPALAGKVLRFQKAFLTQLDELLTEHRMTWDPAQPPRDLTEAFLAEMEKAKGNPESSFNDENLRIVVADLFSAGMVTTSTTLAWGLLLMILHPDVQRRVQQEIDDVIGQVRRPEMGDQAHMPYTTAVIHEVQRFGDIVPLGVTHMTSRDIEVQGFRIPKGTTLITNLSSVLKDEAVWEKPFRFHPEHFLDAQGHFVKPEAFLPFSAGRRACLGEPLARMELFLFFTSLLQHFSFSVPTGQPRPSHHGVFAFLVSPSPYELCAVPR
Description: Inhibition of CYP2D6 in human liver microsomes assessed as inhibition of diclofenac metabolism by HPLC/MS analysis

[3] = molecular target: Receptor-type tyrosine-protein kinase FLT3 (Homo sapiens) (UniProt P36888); assay: Inhibition of wild type human FLT3 at 1 umol by high throughput ATP-[33P] radiolabeled assay relative to control
[4] = molecular target: T2, Leucine-rich repeat serine/threonine-protein kinase 2 (Homo sapiens, UniProt Q5S007)
Description: Inhibition of human wild type LRRK2 by qPCR analysis

[5] = molecular target: T3, Receptor-type tyrosine-protein kinase FLT3 (Homo sapiens, UniProt P36888)
T3 sequence (P36888 whole entry): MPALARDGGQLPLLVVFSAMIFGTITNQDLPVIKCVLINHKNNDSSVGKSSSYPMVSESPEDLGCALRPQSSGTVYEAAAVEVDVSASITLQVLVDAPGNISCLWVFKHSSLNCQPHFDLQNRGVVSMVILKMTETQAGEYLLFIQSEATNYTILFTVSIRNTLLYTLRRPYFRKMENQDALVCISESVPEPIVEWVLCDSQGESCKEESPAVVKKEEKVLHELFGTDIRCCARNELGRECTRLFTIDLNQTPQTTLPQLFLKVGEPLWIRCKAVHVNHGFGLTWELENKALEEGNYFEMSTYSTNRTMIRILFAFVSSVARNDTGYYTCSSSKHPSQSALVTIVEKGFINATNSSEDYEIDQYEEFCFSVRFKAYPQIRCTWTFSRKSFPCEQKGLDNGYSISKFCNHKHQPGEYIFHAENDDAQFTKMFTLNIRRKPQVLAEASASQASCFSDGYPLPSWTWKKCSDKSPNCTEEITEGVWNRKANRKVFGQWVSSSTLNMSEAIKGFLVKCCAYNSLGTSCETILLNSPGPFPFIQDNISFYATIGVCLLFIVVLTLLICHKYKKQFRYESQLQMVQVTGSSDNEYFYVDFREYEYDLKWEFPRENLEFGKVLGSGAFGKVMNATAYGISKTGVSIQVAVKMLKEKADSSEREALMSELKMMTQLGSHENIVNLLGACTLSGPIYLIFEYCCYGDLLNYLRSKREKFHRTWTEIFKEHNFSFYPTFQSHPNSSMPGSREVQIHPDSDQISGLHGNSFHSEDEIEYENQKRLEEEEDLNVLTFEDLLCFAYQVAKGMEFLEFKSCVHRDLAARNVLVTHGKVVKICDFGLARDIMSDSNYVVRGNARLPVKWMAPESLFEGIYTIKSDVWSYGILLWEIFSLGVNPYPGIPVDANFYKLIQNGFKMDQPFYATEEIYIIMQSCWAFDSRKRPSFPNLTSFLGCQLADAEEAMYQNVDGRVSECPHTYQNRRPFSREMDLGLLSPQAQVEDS
Description: Inhibition of wild type human FLT3 by high throughput ATP-[33P] radiolabeled assay

[6] = molecular target: Inhibitor of nuclear factor kappa-B kinase subunit alpha (Homo sapiens, UniProt O15111)
Description: Inhibition of wild type human IKKa by high throughput ATP-[33P] radiolabeled assay

[7] = molecular target: Inhibitor of nuclear factor kappa-B kinase subunit beta (Homo sapiens, UniProt O14920)
Description: Inhibition of wild type human IKKb by high throughput ATP-[33P] radiolabeled assay

[8] = molecular target: Tyrosine-protein kinase ABL1 (Homo sapiens, UniProt P00519, T315I)
Description: Inhibition of wild type human ABL1 T315I mutant by high throughput ATP-[33P] radiolabeled assay

Insulin receptor = Insulin receptor (Homo sapiens, UniProt P06213)
Chain of Insulin receptor (P06213 28-758 limits assumed): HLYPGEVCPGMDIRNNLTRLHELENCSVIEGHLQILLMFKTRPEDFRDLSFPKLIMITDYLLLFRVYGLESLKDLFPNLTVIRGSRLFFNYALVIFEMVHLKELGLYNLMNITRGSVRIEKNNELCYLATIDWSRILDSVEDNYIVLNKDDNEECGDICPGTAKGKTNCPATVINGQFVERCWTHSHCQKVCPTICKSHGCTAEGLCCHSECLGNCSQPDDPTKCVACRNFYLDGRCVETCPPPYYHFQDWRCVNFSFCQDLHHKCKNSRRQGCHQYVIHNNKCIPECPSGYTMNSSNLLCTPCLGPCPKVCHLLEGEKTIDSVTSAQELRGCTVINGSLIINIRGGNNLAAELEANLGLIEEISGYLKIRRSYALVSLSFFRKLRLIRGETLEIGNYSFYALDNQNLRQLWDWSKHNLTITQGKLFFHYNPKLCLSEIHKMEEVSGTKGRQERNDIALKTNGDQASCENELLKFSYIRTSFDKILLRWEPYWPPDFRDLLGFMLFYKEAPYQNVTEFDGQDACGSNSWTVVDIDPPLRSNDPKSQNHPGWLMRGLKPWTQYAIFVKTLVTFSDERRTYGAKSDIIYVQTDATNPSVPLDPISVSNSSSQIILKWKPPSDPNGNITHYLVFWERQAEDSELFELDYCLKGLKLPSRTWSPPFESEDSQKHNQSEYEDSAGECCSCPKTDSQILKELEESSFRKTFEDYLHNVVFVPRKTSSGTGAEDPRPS
Chain of Insulin receptor (P06213 763-1382 limits assumed): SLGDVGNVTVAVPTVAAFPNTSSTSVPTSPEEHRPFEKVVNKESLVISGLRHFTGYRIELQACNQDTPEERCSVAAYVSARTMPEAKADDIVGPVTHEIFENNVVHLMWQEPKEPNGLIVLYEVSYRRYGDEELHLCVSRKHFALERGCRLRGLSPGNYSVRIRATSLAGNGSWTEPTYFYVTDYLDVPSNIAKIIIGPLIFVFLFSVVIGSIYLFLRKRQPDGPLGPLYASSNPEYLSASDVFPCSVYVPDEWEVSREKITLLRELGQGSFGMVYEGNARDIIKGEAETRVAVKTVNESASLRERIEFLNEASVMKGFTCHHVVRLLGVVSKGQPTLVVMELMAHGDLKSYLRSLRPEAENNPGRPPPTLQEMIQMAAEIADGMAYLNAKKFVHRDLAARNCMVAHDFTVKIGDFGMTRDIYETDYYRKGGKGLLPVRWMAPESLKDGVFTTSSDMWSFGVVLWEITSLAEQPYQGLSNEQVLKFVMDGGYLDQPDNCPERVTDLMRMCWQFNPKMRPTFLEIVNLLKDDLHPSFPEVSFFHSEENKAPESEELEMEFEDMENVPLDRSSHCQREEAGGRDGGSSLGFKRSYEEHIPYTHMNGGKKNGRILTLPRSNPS
Description: Inhibition of wild type human IR by high throughput ATP-[33P] radiolabeled assay

[9] = molecular target: Cyclin-dependent kinase 2 (Homo sapiens, UniProt P24941)
Description: Inhibition of wild type human CDK2 by high throughput ATP-[33P] radiolabeled assay

[10] = molecular target: T3, Receptor-type tyrosine-protein kinase FLT3; assay: cell-based
Description: Inhibition of FLT3-L-stimulated wild type full length human FLT3 autophosphorylation expressed in MEF preincubated for 90 mins followed by FLT3-L stimulation measured after 5 mins by ELISA

[11] = molecular target: T4, Tyrosine-protein kinase ABL1 (Homo sapiens, UniProt P00519); assay: Inhibition of human wild type ABL1 at 1 uM by qPCR analysis relative to control
[12] = molecular target: T4, Tyrosine-protein kinase ABL1; assay: Inhibition of human ABL1 mutant at 1 uM by qPCR analysis
[13] = molecular target: TRAF2 and NCK-interacting protein kinase (Homo sapiens) (UniProt Q9UKE5); assay: Binding affinity to human wild type TNIK at 1 uM by qPCR analysis
[14] = molecular target: Ribosomal protein S6 kinase alpha-6 (Homo sapiens) (UniProt Q9UK32); assay: Inhibition of human wild type RSK4 at 1 uM by qPCR analysis
[15] = molecular target: Mitogen-activated protein kinase kinase kinase kinase 4 (Homo sapiens) (UniProt O95819); assay: Binding affinity to human wild type MAP4K4 at 1 uM by qPCR analysis
[16] = molecular target: Ribosomal protein S6 kinase alpha-1 (Homo sapiens) (UniProt Q15418); assay: Inhibition of human wild type RSK1 at 1 uM by qPCR analysis
[17] = molecular target: 5'-AMP-activated protein kinase catalytic subunit alpha-2 (Homo sapiens) (UniProt P54646); assay: Inhibition of human wild type AMPKalpha2 at 1 uM by qPCR analysis relative to control
[18] = molecular target: Calcium/calmodulin-dependent protein kinase type II subunit delta (Homo sapiens) (UniProt Q13557); assay: Inhibition of human wild type CAMK2D at 1 uM by qPCR analysis relative to control
[19] = molecular target: Serine/threonine-protein kinase BRSK2 (Homo sapiens) (UniProt Q8IWQ3); assay: Inhibition of human wild type BRSK2 at 1 uM by qPCR analysis relative to control
[20] = molecular target: Calcium/calmodulin-dependent protein kinase type II subunit alpha (Homo sapiens) (UniProt Q9UQM7); assay: Inhibition of human wild type CAMK2A at 1 uM by qPCR analysis relative to control
[21] = molecular target: Aurora kinase C (Homo sapiens) (UniProt Q9UQB9); assay: Inhibition of human wild type Aurora kinase C at 1 uM by qPCR analysis relative to control
[22] = molecular target: Aurora kinase A (Homo sapiens) (UniProt O14965); assay: Inhibition of human wild type Aurora kinase A at 1 uM by qPCR analysis relative to control
Chain of Aurora kinase A (Homo sapiens) (O14965 whole entry): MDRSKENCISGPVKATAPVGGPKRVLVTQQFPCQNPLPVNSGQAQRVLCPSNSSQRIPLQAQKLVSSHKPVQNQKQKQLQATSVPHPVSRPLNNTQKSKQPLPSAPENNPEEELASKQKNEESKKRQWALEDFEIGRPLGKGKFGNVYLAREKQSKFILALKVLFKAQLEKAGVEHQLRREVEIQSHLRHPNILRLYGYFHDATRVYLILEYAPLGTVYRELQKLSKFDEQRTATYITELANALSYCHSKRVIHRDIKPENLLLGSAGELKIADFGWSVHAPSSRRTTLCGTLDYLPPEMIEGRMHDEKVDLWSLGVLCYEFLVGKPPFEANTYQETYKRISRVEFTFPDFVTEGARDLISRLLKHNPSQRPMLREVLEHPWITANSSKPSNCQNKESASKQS

[23] = molecular target: T5, Mitogen-activated protein kinase kinase kinase 9 (Homo sapiens, UniProt P80192); assay: Inhibition of human wild type MLK1 at 1 uM by qPCR analysis relative to control
[24] = molecular target: Calcium/calmodulin-dependent protein kinase type 1D (Homo sapiens) (UniProt Q8IU85); assay: Inhibition of human wild type CAMK1D at 1 uM by qPCR analysis relative to control
[25] = system: Leucine-rich repeat serine/threonine-protein kinase 2 (Homo sapiens), Q5S007 [G2019S]; assay: Inhibition of human LRRK2 G2019S mutant at 1 uM by qPCR analysis relative to control
[26] = molecular target: T2, Leucine-rich repeat serine/threonine-protein kinase 2; assay: Inhibition of human wild type LRRK2 at 1 uM by qPCR analysis relative to control
[27] = molecular target: Mast/stem cell growth factor receptor Kit (Homo sapiens) (UniProt P10721); assay: Inhibition of human wild type KIT at 1 uM by qPCR analysis relative to control
[28] = molecular target: Receptor-type tyrosine-protein kinase FLT3 (Homo sapiens) (UniProt P36888); assay: Inhibition of human wild type FLT3 at 1 uM by qPCR analysis relative to control
[29] = molecular target: T5, Mitogen-activated protein kinase kinase kinase 9
Description: Inhibition of MLK1 (unknown origin) after 20 mins in presence of [33P]-ATP

[30] = molecular target: Mitogen-activated protein kinase kinase kinase 10 (Homo sapiens, UniProt Q02779)
Description: Inhibition of MLK2 (unknown origin) after 20 mins in presence of [33P]-ATP

[31] = molecular target: T1, Mitogen-activated protein kinase kinase kinase 11; remark: listed apart in the source
Description: Inhibition of MLK3 (unknown origin) after 20 mins in presence of [33P]-ATP

T1 sequence (Q16584 whole entry): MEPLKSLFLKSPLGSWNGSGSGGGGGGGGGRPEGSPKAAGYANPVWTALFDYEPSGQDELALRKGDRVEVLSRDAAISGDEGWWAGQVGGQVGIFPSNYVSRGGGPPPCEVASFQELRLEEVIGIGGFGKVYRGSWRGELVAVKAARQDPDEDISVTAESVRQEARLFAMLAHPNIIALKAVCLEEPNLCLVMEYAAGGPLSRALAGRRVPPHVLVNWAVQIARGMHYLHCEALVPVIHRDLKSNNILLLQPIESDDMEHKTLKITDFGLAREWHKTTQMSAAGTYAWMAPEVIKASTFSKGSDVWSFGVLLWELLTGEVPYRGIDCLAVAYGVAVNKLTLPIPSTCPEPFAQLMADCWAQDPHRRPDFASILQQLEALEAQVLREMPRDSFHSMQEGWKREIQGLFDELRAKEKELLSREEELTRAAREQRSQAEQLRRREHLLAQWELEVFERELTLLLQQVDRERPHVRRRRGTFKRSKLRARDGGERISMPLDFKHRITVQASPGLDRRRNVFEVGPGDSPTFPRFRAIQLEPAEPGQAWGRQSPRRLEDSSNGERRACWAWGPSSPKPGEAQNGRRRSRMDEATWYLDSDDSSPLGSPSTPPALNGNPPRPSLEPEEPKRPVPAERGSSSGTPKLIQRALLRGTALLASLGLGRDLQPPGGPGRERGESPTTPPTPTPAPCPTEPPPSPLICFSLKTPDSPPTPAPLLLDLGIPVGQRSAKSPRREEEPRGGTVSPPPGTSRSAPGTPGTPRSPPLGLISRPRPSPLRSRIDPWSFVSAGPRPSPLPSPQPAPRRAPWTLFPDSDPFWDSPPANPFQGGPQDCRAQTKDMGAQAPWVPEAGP
Chain of Mitogen-activated protein kinase kinase kinase 11 (Mus musculus, UniProt Q80XI6) (Q80XI6 whole entry): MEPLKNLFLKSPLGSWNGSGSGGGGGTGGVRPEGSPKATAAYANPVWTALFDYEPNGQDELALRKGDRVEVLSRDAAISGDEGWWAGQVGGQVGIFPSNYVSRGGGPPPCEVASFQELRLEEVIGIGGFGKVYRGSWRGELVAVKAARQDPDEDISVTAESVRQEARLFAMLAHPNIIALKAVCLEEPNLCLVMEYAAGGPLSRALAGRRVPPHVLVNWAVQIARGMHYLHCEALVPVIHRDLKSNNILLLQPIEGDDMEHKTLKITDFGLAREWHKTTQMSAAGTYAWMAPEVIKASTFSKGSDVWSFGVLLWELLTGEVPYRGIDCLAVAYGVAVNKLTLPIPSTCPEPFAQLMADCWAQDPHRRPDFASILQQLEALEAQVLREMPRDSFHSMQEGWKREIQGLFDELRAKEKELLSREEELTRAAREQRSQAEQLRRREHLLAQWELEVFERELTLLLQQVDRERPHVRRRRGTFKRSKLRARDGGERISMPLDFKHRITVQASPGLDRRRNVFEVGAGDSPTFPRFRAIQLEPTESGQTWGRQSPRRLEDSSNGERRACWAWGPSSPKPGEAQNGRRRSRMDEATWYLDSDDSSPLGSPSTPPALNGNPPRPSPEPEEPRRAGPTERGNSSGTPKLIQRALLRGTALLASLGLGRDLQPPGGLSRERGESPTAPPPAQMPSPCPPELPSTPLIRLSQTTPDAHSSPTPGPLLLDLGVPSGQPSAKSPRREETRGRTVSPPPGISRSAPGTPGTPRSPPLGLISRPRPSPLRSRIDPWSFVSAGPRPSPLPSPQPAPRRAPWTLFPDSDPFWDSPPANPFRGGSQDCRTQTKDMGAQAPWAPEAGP

COc1cc(-c2cnc3[nH]cc(-c4cnc(N)nc4)c3c2)cc(OC)c1OC
IC50 [1]: 990 nM
IC50 [2]: 9 nM
IC50 (Cytochrome P450 3A4): > 30000 nM
IC50 (Cytochrome P450 2C9): > 30000 nM
IC50 (Cytochrome P450 2D6): > 30000 nM

Nc1ccc(-c2cnc3[nH]cc(-c4ccc5[nH]ccc5c4)c3c2)cn1
inhibition [3]: 98%
IC50 [1]: 430 nM
IC50 [2]: 19 nM
IC50 [4]: 46 nM
IC50 (Cytochrome P450 3A4): 4200 nM
IC50 (Cytochrome P450 2C9): 13700 nM
IC50 (Cytochrome P450 2D6): 3700 nM

Nc1ncc(-c2cnc3[nH]cc(-c4ccc5[nH]ccc5c4)c3c2)cn1
inhibition [3]: 97%
IC50 [1]: 510 nM
IC50 [2]: 78 nM
IC50 (Cytochrome P450 3A4): 21800 nM
IC50 (Cytochrome P450 2C9): > 30000 nM
IC50 (Cytochrome P450 2D6): 13200 nM

COc1cc(-c2cnc3[nH]c(=O)n(-c4ccc5[nH]ccc5c4)c3n2)cc(OC)c1OC
inhibition [3]: 88%
IC50 [4]: 2970 nM

COc1cc(-c2cnc3[nH]cc(-c4ccc5[nH]ccc5c4)c3c2)cc(OC)c1OC
inhibition [3]: 98%
IC50 [1]: 2700 nM
IC50 [2]: 3 nM
IC50 [4]: 35 nM
IC50 (Cytochrome P450 3A4): > 30000 nM
IC50 (Cytochrome P450 2C9): > 30000 nM
IC50 (Cytochrome P450 2D6): > 30000 nM

CN1CCN(Cc2ccc(-c3cnc4[nH]cc(-c5cnc6[nH]ccc6c5)c4c3)cc2)CC1
IC50 [2]: 21 nM
IC50 [5]: 9.5 nM
IC50 [6]: 330 nM
IC50 [7]: 288 nM
IC50 [8]: 285 nM
IC50 (Insulin receptor): 1290 nM
IC50 [9]: 720 nM
IC50 [10]: 730 nM

CCSCc1ccc2c(c1)c1c3c(c4c5cc(CSCC)ccc5n5c4c1n2[C@H]1C[C@](O)(C(=O)OC)[C@]5(C)O1)CNC3=O [CEP-1347]
inhibition [11]: inactive
inhibition [12]: inactive
inhibition [13]: Active
inhibition [14]: Active
inhibition [15]: Active
inhibition [16]: Active
inhibition [17]: 98%
inhibition [18]: 87%
inhibition [19]: 94%
inhibition [20]: 84%
inhibition [21]: > 99%
inhibition [22]: > 99%
inhibition [23]: > 99%
inhibition [24]: > 99%
inhibition [25]: 98%
inhibition [26]: 100%
inhibition [27]: > 99%
inhibition [28]: > 99%
IC50 [29]: < 1 nM
IC50 [30]: 2 nM
IC50 [31]: 6 nM

COc1cc(-c2cnc3[nH]cc(-c4ccc(N)nc4)c3c2)cc(OC)c1OC
inhibition [3]: 99%
IC50 [1]: 120 nM
IC50 [2]: 7 nM
IC50 [4]: 5 nM
IC50 (Cytochrome P450 3A4): > 30000 nM
IC50 (Cytochrome P450 2C9): > 30000 nM
IC50 (Cytochrome P450 2D6): > 30000 nM
